Test results published in article PMC12176268, “Structural Features and Photophysical and Antiproliferative Properties of Me2N‑pbt-Cycloplatinated Complexes with Picolinate Ligands” (Inorganic Chemistry, 2025).

Experiments:
[1] = Singlet oxygen generation, NIR emission at 1274 nm versus phenalenone; type: physicochemical; conditions: aerated acetonitrile 5 × 10^–5 M, 298 K, excitation 365 nm, reference phenalenone
Procedure: In aerated DMSO solutions, complexes 1–3 display a fluorescence band only at ca 510 nm, attributed to ^1LL′CT/^1ILCT, due to easy quenching of the phosphorescence by oxygen. However, upon prolonged photoexcitation at 365 nm, a continuous enhancement of the phosphorescence band is observed. Simply irradiating with a hand UV–vis lamp, the initial blue-green emission gradually shifts to the orange enhanced emission. The phosphorescence increases its maximum intensity in ca 15 1, 8 2, or 12 min 3 (Figures and S23). […] This relatively rare behavior has been previously observed by us , and other groups, and is explained by the occurrence of a local sensitization caused by energy transfer from the low-energy triplet to ^3O2-producing singlet ^1O2, which is able to selectively react with the solvent creating a free oxygen microenvironment that switches-on a phosphorescence band due to ^3ILCT at 580 nm. The strong sensitivity of the phosphorescence emission in these complexes encourages us to determine their efficiency as ^1O2 sensitizers. The singlet oxygen generation of complexes 1–3 was examined in acetonitrile solution (5 × 10^–5 M) using a near-infrared detector upon excitation at 365 nm, detecting the characteristic emission profile of ^1O2 at λem ∼ 1274 nm (Figure ).

[2] = target: bovine serum albumin (BSA) (Bos taurus, UniProt P02769); assay: Emission and UV–vis titration of complex 3 with BSA; type: binding; conditions: 10 μM complex, BSA 0–50 μM, H2O/DMSO 95/5, λexc 450 nm
Sequence of bovine serum albumin (BSA) (P02769 25-607): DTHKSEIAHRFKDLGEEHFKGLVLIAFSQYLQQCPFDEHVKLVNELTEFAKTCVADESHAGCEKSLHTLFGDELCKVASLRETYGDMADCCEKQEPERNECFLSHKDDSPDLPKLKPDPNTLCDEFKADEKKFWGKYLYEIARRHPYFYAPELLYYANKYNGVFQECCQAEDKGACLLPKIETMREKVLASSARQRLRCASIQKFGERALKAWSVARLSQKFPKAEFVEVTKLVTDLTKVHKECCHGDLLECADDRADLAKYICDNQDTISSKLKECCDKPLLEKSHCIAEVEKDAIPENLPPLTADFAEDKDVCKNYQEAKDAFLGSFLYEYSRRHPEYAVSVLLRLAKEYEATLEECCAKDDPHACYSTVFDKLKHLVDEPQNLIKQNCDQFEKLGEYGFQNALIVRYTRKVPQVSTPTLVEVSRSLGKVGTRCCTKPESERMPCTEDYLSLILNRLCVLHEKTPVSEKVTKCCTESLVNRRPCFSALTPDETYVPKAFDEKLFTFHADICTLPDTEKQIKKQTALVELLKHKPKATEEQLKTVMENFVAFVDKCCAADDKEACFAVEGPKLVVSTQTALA
Procedure: The possible interaction of these Pt(II) complexes with the model protein bovine serum albumin (BSA) was studied by fluorescence and UV–vis spectroscopy. […] The effect of increasing the amount of BSA (from 0 to 50 μM) on solutions of complex 3 in mixtures of H2O/DMSO (95/5 v/v) while keeping the concentration of 3 (10 μM) constant was evaluated. Upon addition of BSA (3/BSA 1:0.25), a slight blue shift of the emission band from 510 to 495 nm is observed, and a clear switch-on of the monomer phosphorescence (^3ILCT), as a structured band slightly blue-shifted (ca. 574 nm) in relation to the complex in DMSO is observed. The intensity of this latter band reaches a maximum when the 3/BSA ratio was ca 1:1 (Figure ). […] In particular, the decrease in fluorescence emission and the switch-on of the monomer phosphorescence can be attributed to the binding of 3 to the hydrophobic pockets of the protein, which increases the rigidity of its environment and decreases the nonradiative constant.
For the BSA binding experiment, solutions of complex 3 with BSA in mixtures of DMSO/H2O (5/95 v/v) were prepared, keeping the concentration of 3 (10 μM) constant and increasing the amount of BSA (from 0 to 50 μM). […] The fluorescence intensities were then measured at λexc = 450 nm, and the emission fluorescence spectra were recorded in the wavelength range λ = 400–800 nm.

MDA-MB-231 cells = assay: Intracellular ROS production with H2DCFDA probe; type: cell-based, human
Procedure: Cyclometalated complexes of various metals, including Ir(III), Rh(III), Pt(II), and Au(III), have been reported to induce overproduction of reactive oxygen species (ROS), inducing oxidative stress leading to cell death. […] Following the protocol used for cytotoxicity assays, cells were incubated with 3 for 4 h in the dark at 37 °C (dark conditions) or incubated with 3 for 4 h in the dark at 37 °C, followed by 5 min of irradiation at 450 nm (irradiation conditions). ROS production was measured using the nonspecific ROS probe 2′,7′-dichlorodihydrofluorescein diacetate (H2DCFDA) (Figures and S36).
11 ROS production upon incubation of MDA-MB-231 cells for 4 h at 37 °C (dark) or for 4 h at 37 °C + 5 min irradiation at 450 nm (irradiation) with complex 3 (5, 2, 1, or 0.5 μM), expressed as the mean fluorescence intensity normalized to DMSO negative controls. […]
Triple-negative breast cancer cells MDA-MB-231 were seeded in 6-well plates at a concentration of 150 000 cells/well in 1.5 mL DMEM (Dulbecco’s modified Eagle’s medium) containing GlutaMax I supplemented with 10% FBS. […] Microscopy images were recorded in brightfield and GFP filter modes using an EVOS M5000 microscope with a 10× objective. Cell confluency was assessed on the brightfield images using EVOS M5000 microscope software, and quantification of green fluorescence was performed using Fiji software. […]

With “[Pt(Me2N-pbt)(3-OH-pic-κN,O)] [Complex 3]” the “quantum yield (ϕΔ) of 1O2” value [1] was 16.2%, the “interaction with BSA (changes of emission and UV–vis spectra)” value [2] was “interacts strongly with BSA” and the “ROS production (H2DCFDA green fluorescence), dark” value (MDA-MB-231 cells; MDA-MB-231, 0.5, 1, 2 or 5 μM, 4 h at 37 °C in the dark) was “dose-dependent increase of green fluorescence”. The “ROS production (H2DCFDA green fluorescence), irradiation versus dark” value (MDA-MB-231 cells; MDA-MB-231, 4 h at 37 °C + 5 min irradiation at 450 nm) was “statistically significant increase of ROS production”.
